These results are taken from ChEMBL document CHEMBL1147948, “Preparation of novel anthranilic acids as antibacterial agents: extensive evaluation of structural and physical properties on antibacterial activity and human serum albumin affinity” (Bioorg Med Chem Lett, 2007).

≈ marks a conversion by molar mass, not a printed value.

The test system of one assay is Staphylococcus aureus. Description: Antibacterial activity against Staphylococcus aureus UC 9218. Type of assay: functional.
What is called MIC is the lowest concentration that inhibits growth of the organism. `N#Cc1ccc(NC(=O)c2ccc(SC3CCCCC3)nc2)c(C(=O)O)c1` came in with an MIC of 0.5 µg/mL (≈ 1.31 µM).

In the case of `CC(C)Sc1ccc(C(=O)Nc2ccc(C#N)cc2C(=O)O)cn1`, it took 1 µg/mL (≈ 2.93 µM) to inhibit growth (MIC).

`N#Cc1ccc(NC(=O)c2ccc(SC3CCCC3)nc2)c(C(=O)O)c1`: the MIC was 0.5 µg/mL (≈ 1.36 µM).

`O=C(Nc1ccc(Br)cc1C(=O)O)c1ccc(SC2CCCCC2)nc1`: the minimum inhibitory concentration (MIC) amounted to 1 µg/mL (≈ 2.3 µM).

With `CC(C)CSc1ccc(C(=O)Nc2ccc(C#N)cc2C(=O)O)cn1`, the MIC came out at 0.5 µg/mL (≈ 1.41 µM).

`CC(C)Sc1ccc(C(=O)Nc2ccc(Br)cc2C(=O)O)cn1` yielded a minimum inhibitory concentration (MIC) of 1 µg/mL (≈ 2.53 µM).

`CC(C)(C)c1ccc(-c2ccc(NC(=O)c3cccc(S(=O)(=O)N4CCc5cc(Cl)ccc54)c3)c(C(=O)O)c2)cc1` returned an MIC of 16 µg/mL (≈ 27.2 µM).

`CCCCCCCCCSc1ccc(C(=O)Nc2ccc(C#N)cc2C(=O)O)cn1` yielded an MIC of 1 µg/mL (≈ 2.35 µM).

`CSc1ccc(C(=O)Nc2ccc(C#N)cc2C(=O)O)cn1` displayed an MIC of 32 µg/mL (≈ 102 µM).

`CCSc1ccc(C(=O)Nc2ccc(C#N)cc2C(=O)O)cn1` registered an MIC of 0.5 µg/mL (≈ 1.53 µM).

Regarding `CCCSc1ccc(C(=O)Nc2ccc(C#N)cc2C(=O)O)cn1`, the MIC was 0.5 µg/mL (≈ 1.46 µM).

For `O=C(Nc1ccc(Br)cc1C(=O)O)c1ccc(SC2CCOCC2)nc1`, the lowest concentration to inhibit growth (MIC) was 1 µg/mL (≈ 2.29 µM).

Regarding `COCCOCCCSc1ccc(C(=O)Nc2ccc(C#N)cc2C(=O)O)cn1`, the MIC came out at 1 µg/mL (≈ 2.41 µM).

The subject of another assay is Staphylococcus aureus. The experiment in a line: Ratio of MIC of Staphylococcus aureus UC 9218 in presence of 10% serum to MIC of Staphylococcus aureus UC 9218 in absence of serum. It counts as functional.
As to `CCCCSc1ccc(C(=O)Nc2ccc(C#N)cc2C(=O)O)cn1`, the Ratio stood at 64.

Consider `CCCCCCSc1ccc(C(=O)Nc2ccc(C#N)cc2C(=O)O)cn1`, for which the Ratio came to 64.

For the molecule `N#Cc1ccc(NC(=O)c2ccc(SC3CCCCC3)nc2)c(C(=O)O)c1`, the Ratio is 64.

As to `CC(C)Sc1ccc(C(=O)Nc2ccc(C#N)cc2C(=O)O)cn1`, the Ratio was found to be 16.

Take `N#Cc1ccc(NC(=O)c2ccc(SC3CCCC3)nc2)c(C(=O)O)c1`: the Ratio was 32.

On to `CCC(CC)Sc1ccc(C(=O)Nc2ccc(C#N)cc2C(=O)O)cn1`, for which the Ratio is 32.

`CCCCCCSc1ccc(C(=O)Nc2ccc(Br)cc2C(=O)O)cn1`: the Ratio came to 512.

For `O=C(Nc1ccc(Br)cc1C(=O)O)c1ccc(SC2CCCCC2)nc1`, the Ratio came to 64.

On to `CC(C)CSc1ccc(C(=O)Nc2ccc(C#N)cc2C(=O)O)cn1`, for which the Ratio turned out to be 16.

For `CC(C)Sc1ccc(C(=O)Nc2ccc(Br)cc2C(=O)O)cn1`, the Ratio turned out to be 32.

As for `CCCC(C)Sc1ccc(C(=O)Nc2ccc(C#N)cc2C(=O)O)cn1` (stereo not given), the Ratio stood at 128.

For `CCCCCCCCCSc1ccc(C(=O)Nc2ccc(C#N)cc2C(=O)O)cn1`, the Ratio was above 128.

As to `CSc1ccc(C(=O)Nc2ccc(C#N)cc2C(=O)O)cn1`, the Ratio is 8.

Turning to `CCCCCCSc1ccc(C(=O)Nc2ccc(Cl)cc2C(=O)O)cn1`, the Ratio is 512.

`CCSc1ccc(C(=O)Nc2ccc(C#N)cc2C(=O)O)cn1`: the Ratio was 16.

With `N#Cc1ccc(NC(=O)c2ccc(SC3CCOCC3)nc2)c(C(=O)O)c1`, the Ratio turned out to be 32.

`CCCSc1ccc(C(=O)Nc2ccc(C#N)cc2C(=O)O)cn1`: the Ratio is 64.

Turning to `O=C(Nc1ccc(Br)cc1C(=O)O)c1ccc(SC2CCOCC2)nc1`, the Ratio was 32.

Consider `COCCOCCCSc1ccc(C(=O)Nc2ccc(C#N)cc2C(=O)O)cn1`, for which the Ratio turned out to be 4.

Consider `CCCCCSc1ccc(C(=O)Nc2ccc(C#N)cc2C(=O)O)cn1`, for which the Ratio was 32.

As for `CCCCC(C)Sc1ccc(C(=O)Nc2ccc(C#N)cc2C(=O)O)cn1` (stereo not given), the Ratio is 128.

Another assay relates to Staphylococcus aureus. The experiment in a line: Antibacterial activity against Staphylococcus aureus UC 9218 in presence of 5% human serum. Type of assay: functional.
On to `CC(C)(C)c1ccc(-c2cncc(C(=O)Nc3ccc(C#N)cc3C(=O)O)c2)cc1`, for which the MIC is above 128 µg/mL.

For `CC(C)(C)c1ccc(-c2ccc(NC(=O)c3cccc(S(=O)(=O)N4CCc5cc(Cl)ccc54)c3)c(C(=O)O)c2)cc1`, the MIC was above 128 µg/mL.

The next assay deals with Albumin (Homo sapiens, UniProt P02768). Description: Binding affinity to human serum albumin.
Chain of Albumin (P02768 whole entry): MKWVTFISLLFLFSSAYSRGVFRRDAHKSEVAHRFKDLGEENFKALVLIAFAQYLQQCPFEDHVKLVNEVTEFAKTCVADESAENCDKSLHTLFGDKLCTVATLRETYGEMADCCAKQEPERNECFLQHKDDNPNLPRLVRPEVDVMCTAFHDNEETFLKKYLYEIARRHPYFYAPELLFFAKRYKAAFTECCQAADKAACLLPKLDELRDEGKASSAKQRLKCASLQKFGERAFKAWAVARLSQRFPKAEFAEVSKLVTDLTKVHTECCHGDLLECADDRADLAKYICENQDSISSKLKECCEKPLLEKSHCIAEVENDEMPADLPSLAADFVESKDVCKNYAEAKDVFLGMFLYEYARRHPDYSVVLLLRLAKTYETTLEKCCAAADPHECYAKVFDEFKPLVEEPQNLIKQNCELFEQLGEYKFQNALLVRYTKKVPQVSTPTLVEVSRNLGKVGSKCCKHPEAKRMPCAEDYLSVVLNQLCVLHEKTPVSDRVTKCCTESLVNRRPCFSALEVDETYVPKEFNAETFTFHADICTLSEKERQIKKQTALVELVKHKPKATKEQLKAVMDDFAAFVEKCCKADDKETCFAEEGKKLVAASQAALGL
As usually defined, the Kd is a measure of binding affinity in units of concentration. A low value points to a tighter complex. `COCCOCCCSc1ccc(C(=O)Nc2ccc(C#N)cc2C(=O)O)cn1` displayed an equilibrium dissociation constant (Kd) of 700 nM.

For another assay, the system named is Staphylococcus aureus. Description: Antibacterial activity against Staphylococcus aureus UC 9218 in presence of 10% human serum. Type of assay: functional.
On to `CC(C)(C)c1ccc(-c2cncc(C(=O)Nc3ccc(C#N)cc3C(=O)O)c2)cc1`, for which the MIC was above 128 µg/mL.

For `CCCCSc1ccc(C(=O)Nc2ccc(C#N)cc2C(=O)O)cn1`, the MIC is 16 µg/mL.

With `CCCCCCSc1ccc(C(=O)Nc2ccc(C#N)cc2C(=O)O)cn1`, the MIC amounted to 8 µg/mL.

With `N#Cc1ccc(NC(=O)c2ccc(SC3CCCCC3)nc2)c(C(=O)O)c1`, the minimal inhibitory concentration (MIC) came to 32 µg/mL.

As for `CC(C)Sc1ccc(C(=O)Nc2ccc(C#N)cc2C(=O)O)cn1`, the minimum inhibitory concentration (MIC) was found to be 16 µg/mL.

Regarding `N#Cc1ccc(NC(=O)c2ccc(SC3CCCC3)nc2)c(C(=O)O)c1`, the MIC turned out to be 16 µg/mL.

As for `CCC(CC)Sc1ccc(C(=O)Nc2ccc(C#N)cc2C(=O)O)cn1`, the MIC worked out at 8 µg/mL.

For the molecule `CCCCCCSc1ccc(C(=O)Nc2ccc(Br)cc2C(=O)O)cn1`, the MIC turned out to be 64 µg/mL.

Turning to `O=C(Nc1ccc(Br)cc1C(=O)O)c1ccc(SC2CCCCC2)nc1`, the minimal inhibitory concentration (MIC) came to 64 µg/mL.

As to `CC(C)CSc1ccc(C(=O)Nc2ccc(C#N)cc2C(=O)O)cn1`, the MIC was 8 µg/mL.

On to `CC(C)Sc1ccc(C(=O)Nc2ccc(Br)cc2C(=O)O)cn1`, for which the MIC is 32 µg/mL.

As for `CCCC(C)Sc1ccc(C(=O)Nc2ccc(C#N)cc2C(=O)O)cn1` (stereo not given), the MIC was found to be 16 µg/mL.

Take `CC(C)(C)c1ccc(-c2ccc(NC(=O)c3cccc(S(=O)(=O)N4CCc5cc(Cl)ccc54)c3)c(C(=O)O)c2)cc1`: the MIC is above 128 µg/mL.

Consider `CCCCCCCCCSc1ccc(C(=O)Nc2ccc(C#N)cc2C(=O)O)cn1`, for which the MIC is above 128 µg/mL.

As to `CSc1ccc(C(=O)Nc2ccc(C#N)cc2C(=O)O)cn1`, the MIC is above 128 µg/mL.

For `CCCCCCSc1ccc(C(=O)Nc2ccc(Cl)cc2C(=O)O)cn1`, the minimum inhibitory concentration (MIC) came out at 64 µg/mL.

Take `CCSc1ccc(C(=O)Nc2ccc(C#N)cc2C(=O)O)cn1`: the minimal inhibitory concentration (MIC) was found to be 8 µg/mL.

`N#Cc1ccc(NC(=O)c2ccc(SC3CCOCC3)nc2)c(C(=O)O)c1`: the MIC stood at 4 µg/mL.

Turning to `CCCSc1ccc(C(=O)Nc2ccc(C#N)cc2C(=O)O)cn1`, the minimum inhibitory concentration (MIC) is 32 µg/mL.

Turning to `O=C(Nc1ccc(Br)cc1C(=O)O)c1ccc(SC2CCOCC2)nc1`, the minimal inhibitory concentration (MIC) amounted to 32 µg/mL.

Regarding `COCCOCCCSc1ccc(C(=O)Nc2ccc(C#N)cc2C(=O)O)cn1`, the MIC was determined as 4 µg/mL.

`CCCCCSc1ccc(C(=O)Nc2ccc(C#N)cc2C(=O)O)cn1`: the MIC was 4 µg/mL.

In the case of `CCCCC(C)Sc1ccc(C(=O)Nc2ccc(C#N)cc2C(=O)O)cn1` (stereo not given), the minimum inhibitory concentration (MIC) turned out to be 16 µg/mL.
